Test results taken from US20240132431A1, “METHOD FOR ALKYLATING ACIDIC FUNCTIONAL GROUP” (Chugai Seiyaku Kabushiki Kaisha, priority 2021, published 2024).

Target: T1, Bcl-2 protein (Recombinant Human Bcl-2 Protein) (Homo sapiens, UniProt P10415)
T1 construct: purchased Novus NBP2-34889
Assay: Binding evaluation of mixture library compounds to Bcl-2 using AS-MS (affinity selection mass spectrometry)
Conditions: ASMS Ratio(%)=(A−C)/B×100; for ASMS ratio (%) n = 1: replicate n = 1; for ASMS ratio (%) n = 2: replicate n = 2
Procedure: For one well of MICROPLATE, 96-well, PP, V-BOTTOM (Greiner bio-one, 651201), DMSO solutions of 12 mixtures (prepared to approximately 0.58 mM based on calculations from the average molecular weight of each mixture), in each of which 100 compounds are mixed, were each dispensed, and dispensed into a total of 12 wells, where the 12 mixtures are mixAI-B4J-01, mixAI-B1M-01, mixAI-B1K-01, mixAI-B10-01, mixAI-B1A-01, mixAI-B3A-01, mixAI-B21-01, mixAI-B2L-01, mixAI-B2N-01, mixAI-B2A-01, mixAI-B2Q-01, and mixAI-B2R-01 listed in [Table AI-03-B4J-01], [Table AI-03-B1M-01], [Table AI-03-B1K-01], [Table AI-03-B10-01], [Table AI-03-B1A-01], [Table AI-03-B3A-01], [Table AI-03-B2I-01], [Table AI-03-B2L-01], [Table AI-03-B2N-01], [Table AI-03-B2A-01], [Table AI-03-B2Q-01], and [AI-03-B2R-01] shown in Example 6. Using the LABCYTE ECHO® 555 Acoustic Dispensing System (BECKMAN COULTER), 70 nL was collected from each of the 12 wells into one arbitrary well to prepare a sample solution with 1200 compounds in the mixed state (the presence of 1152 compounds had already been identified when prepared in Example 6-5-3). (In the present specification, the mixture collected in this one well is referred to as one library.) Furthermore, a Bcl-2 protein (Novus, NBP2-34889, Recombinant Human Bcl-2 Protein, Lot E60145051) (19.2 μL) that had been prepared in advance to be 20.9 μM using a Tris-HCl buffer (25 mM Tris-HCl pH 7.4, 150 mM NaCl, 0.025% Tween-20, 1 mM DTT) was added to the well in which 1200 compounds (the presence of 1152 compounds had already been identified when prepared in Example 6-5-3) were dispensed (final compound concentration […], final Bcl-2 concentration 20 μM), and the mixture was incubated in the dark at 23° C. for 1 hour. Next, using the 96-well MacroSpin column, P-2 Material (Harvard, 74-5655) that had been swollen, conditioning of the 96-well MacroSpin column was performed three times by centrifugation with 200 μL of an assay buffer (25 mM Tris-HCl pH 7.4, 150 mM NaCl, 0.025% Tween-20, 1 mM DTT), 2000 XG, 4° C., 2 min. Subsequently, 20 μL of the sample after incubation was added to the 96-well MacroSpin column, P-2 Material, that had been conditioned, and SEC treatment was performed by centrifugation at 2000×G for 2 minutes. To the liquid passed from the SEC, 32 μL of a 1:1 mixed solution of acetonitrile and methanol (LC/MS grade, Fujifilm Wako Pure Chemical Corporation) was added, the mixture was centrifuged at 1800×G, 4° C., 5 min, and the supernatant was used as analysis sample ASMS (A), while a sample that had been prepared by the same operations at 1200 compounds/well and to which only the Tris-HCl buffer had been added without the Bcl-2 protein was incubated under the same conditions, no 96-well MacroSpin column treatment was performed, the same organic solvent was added, and the supernatant solution obtained by centrifugation was used as STD (B). Next, a sample that had been prepared by the same operations at 1200 compounds/well and to which only the Tris-HCl buffer had been added without the Bcl-2 protein was incubated under the same conditions, the same 96-well MacroSpin column treatment was performed, the same organic solvent was added, and the supernatant solution obtained by centrifugation was used as BK (C), and measured by reversed phase LC/MS.
Then, analysis of the 1200 compounds was carried out for samples A, B, and C with TraceFinder 5.1 (Thermo Fisher Scientific) and CHANCE Software (in-house), and the ASMS Ratio (%) was calculated according to the following calculation formula.
Calculation formula: ASMS Ratio(%)=(A−C)/B×100

[1] = AS-MS, mixture of 1200 compounds, Bcl-2
[2] = AS-MS on the mixture of 1200 library compounds

T1 sequence (P10415 whole entry): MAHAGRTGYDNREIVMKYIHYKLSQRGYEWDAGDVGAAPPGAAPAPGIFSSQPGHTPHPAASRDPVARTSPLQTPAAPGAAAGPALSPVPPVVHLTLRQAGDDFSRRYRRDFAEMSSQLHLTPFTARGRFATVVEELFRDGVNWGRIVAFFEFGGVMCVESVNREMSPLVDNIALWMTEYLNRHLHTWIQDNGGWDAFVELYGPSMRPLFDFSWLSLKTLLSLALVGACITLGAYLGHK

Row | Molecule | ASMS ratio (%) n = 1 [1] | ASMS ratio (%) n = 2 [1] | ASMS ratio (%) n = 1 [2] | ASMS ratio (%) n = 2 [2]
1 | 6-[4-[[4-(3-Ethoxyphenyl)naphthalen-1-yl]methyl]piperazin-1-yl]-N-propylpyridazine-3-carboxamide [B1M045-01] | 2.5% | −2.3% |  | 
2 | 6-[4-[[4-(3-Ethoxyphenyl)thiophen-2-yl]methyl]piperazin-1-yl]-N-propylpyridazine-3-carboxamide [B1M049-01] | −0.9% | −0.4% |  | 
3 | 6-[4-[[4-(5-Ethoxypyridin-3-yl)-2,6-dimethoxyphenyl]methyl]piperazin-1-yl]-N-propylpyridazine-3-carboxamide [B1M023-01] | 1.4% | −3.0% |  | 
4 | 6-[4-[[4-(5-Ethoxypyridin-3-yl)-3-fluorophenyl]methyl]piperazin-1-yl]-N-propylpyridazine-3-carboxamide [B1M086-01] |  |  | 0.0% | 0.0%
5 | 6-[4-[[4-(5-Ethoxypyridin-3-yl)-3-methylphenyl]methyl]piperazin-1-yl]-N-propylpyridazine-3-carboxamide [B1M065-01] | 0.2% | −6.4% |  | 
6 | 6-[4-[[4-(5-Ethoxypyridin-3-yl)naphthalen-1-yl]methyl]piperazin-1-yl]-N-propylpyridazine-3-carboxamide [B1M047-01] | 1.1% | 0.3% |  | 
7 | 6-[4-[[4-(5-Ethoxypyridin-3-yl)thiophen-2-yl]methyl]piperazin-1-yl]-N-propylpyridazine-3-carboxamide [B1M051-01] | 0.7% | 1.9% |  | 
8 | CCOc1cccc(-c2csc(C(=O)N3CCN(c4ccc(C(=O)NCC56CC7CC(CC(C7)C5)C6)nn4)CC3)c2)c1 [B1A001-01, N-(1-Adamantylmethyl)-6-[4-[4-(3-ethoxyphenyl)thiophene-2-carbonyl]piperazin-1-yl]pyridazine-3-carboxamide] | 17.6% | −0.7% |  | 
9 | CCOc1cncc(-c2csc(C(=O)N3CCN(c4ccc(C(=O)NCC56CC7CC(CC(C7)C5)C6)nn4)CC3)c2)c1 [B1A002-01] | 0.0% | 4.9% |  | 
10 | CCOc1cccc(-c2ccc(C(=O)N3CCN(c4ccc(C(=O)NCC56CC7CC(CC(C7)C5)C6)nn4)CC3)cc2C)c1 [B1A003-01, N-(1-Adamantylmethyl)-6-[4-[4-(3-ethoxyphenyl)-3-methylbenzoyl]piperazin-1-yl]pyridazine-3-carboxamide] | 7.5% | 5.8% |  | 
11 | CCOc1cncc(-c2ccc(C(=O)N3CCN(c4ccc(C(=O)NCC56CC7CC(CC(C7)C5)C6)nn4)CC3)cc2C)c1 [B1A004-01, N-(1-Adamantylmethyl)-6-[4-[4-(5-ethoxypyridin-3-yl)-3-methylbenzoyl]piperazin-1-yl]pyridazine-3-carboxamide] | −6.2% | 2.6% |  | 
12 | CCOc1cccc(-c2ccc(C(=O)N3CCN(c4ccc(C(=O)NCC56CC7CC(CC(C7)C5)C6)nn4)CC3)cc2F)c1 [B1A005-01, N-(1-Adamantylmethyl)-6-[4-[4-(3-ethoxyphenyl)-3-fluorobenzoyl]piperazin-1-yl]pyridazine-3-carboxamide] | 7.0% | −10.7% |  | 
13 | CCOc1cncc(-c2ccc(C(=O)N3CCN(c4ccc(C(=O)NCC56CC7CC(CC(C7)C5)C6)nn4)CC3)cc2F)c1 [B1A006-01, N-(1-Adamantylmethyl)-6-[4-[4-(5-ethoxypyridin-3-yl)-3-fluorobenzoyl]piperazin-1-yl]pyridazine-3-carboxamide] | 2.4% | 9.1% |  | 
14 | CCOc1cccc(C#Cc2ccccc2C(=O)N2CCN(c3ccc(C(=O)NCC45CC6CC(CC(C6)C4)C5)nn3)CC2)c1 [B1A007-01, N-(1-Adamantylmethyl)-6-[4-[2-[2-(3-ethoxyphenyl)ethynyl]benzoyl]piperazin-1-yl]pyridazine-3-carboxamide] | 0.0% |  |  | 
15 | CCOc1cncc(C#Cc2ccccc2C(=O)N2CCN(c3ccc(C(=O)NCC45CC6CC(CC(C6)C4)C5)nn3)CC2)c1 [B1A008-01, N-(1-Adamantylmethyl)-6-[4-[2-[2-(5-ethoxypyridin-3-yl)ethynyl]benzoyl]piperazin-1-yl]pyridazine-3-carboxamide] | 3.0% | 0.0% |  | 
16 | CCOc1cccc(C#Cc2cncc(C(=O)N3CCN(c4ccc(C(=O)NCC56CC7CC(CC(C7)C5)C6)nn4)CC3)c2)c1 [B1A009-01, N-(1-Adamantylmethyl)-6-[4-[5-[2-(3-ethoxyphenyl)ethynyl]pyridine-3-carbonyl]piperazin-1-yl]pyridazine-3-carboxamide] | 3.0% | 0.0% |  | 
17 | CCOc1cncc(C#Cc2cncc(C(=O)N3CCN(c4ccc(C(=O)NCC56CC7CC(CC(C7)C5)C6)nn4)CC3)c2)c1 [B1A010-01, N-(1-Adamantylmethyl)-6-[4-[5-[2-(5-ethoxypyridin-3-yl)ethynyl]pyridine-3-carbonyl]piperazin-1-yl]pyridazine-3-carboxamide] |  | 0.0% |  | 
18 | CCOc1cccc(-c2ccccc2CCC(=O)N2CCN(c3ccc(C(=O)NCC45CC6CC(CC(C6)C4)C5)nn3)CC2)c1 [B1A011-01, N-(1-Adamantylmethyl)-6-[4-[3-[2-(3-ethoxyphenyl)phenyl]propanoyl]piperazin-1-yl]pyridazine-3-carboxamide] | 11.2% | −13.2% |  | 
19 | CCOc1cncc(-c2ccccc2CCC(=O)N2CCN(c3ccc(C(=O)NCC45CC6CC(CC(C6)C4)C5)nn3)CC2)c1 [B1A012-01, N-(1-Adamantylmethyl)-6-[4-[3-[2-(5-ethoxypyridin-3-yl)phenyl]propanoyl]piperazin-1-yl]pyridazine-3-carboxamide] | 0.0% | 0.0% |  | 
20 | CCOc1cccc(-c2ccc(C(=O)N3CCN(c4ccc(C(=O)NCC56CC7CC(CC(C7)C5)C6)nn4)CC3)c3ccccc23)c1 [B1A013-01, N-(1-Adamantylmethyl)-6-[4-[4-(3-ethoxyphenyl)naphthalene-1-carbonyl]piperazin-1-yl]pyridazine-3-carboxamide] | −1.7% | 2.4% |  | 
21 | CCOc1cncc(-c2ccc(C(=O)N3CCN(c4ccc(C(=O)NCC56CC7CC(CC(C7)C5)C6)nn4)CC3)c3ccccc23)c1 [B1A014-01, N-(1-Adamantylmethyl)-6-[4-[4-(5-ethoxypyridin-3-yl)naphthalene-1-carbonyl]piperazin-1-yl]pyridazine-3-carboxamide] | 8.1% | 0.0% |  | 
22 | CCOc1cccc(-c2cc(C(=O)N3CCN(c4ccc(C(=O)NCC56CC7CC(CC(C7)C5)C6)nn4)CC3)cc(C(C)(C)C)c2)c1 [B1A015-01, N-(1-Adamantylmethyl)-6-[4-[3-tert-butyl-5-(3-ethoxyphenyl)benzoyl]piperazin-1-yl]pyridazine-3-carboxamide] | −0.9% | −20.6% |  | 
